For one test, the target named is T1, YTHDF1 (361-559) (Homo sapiens, UniProt Q9BYJ9).
T1 construct: GST (N, cleaved yes); made in house; host or cells: E. coli BL21 (DE3)
T1 sequence (Q9BYJ9 with tags, fused parts or gaps): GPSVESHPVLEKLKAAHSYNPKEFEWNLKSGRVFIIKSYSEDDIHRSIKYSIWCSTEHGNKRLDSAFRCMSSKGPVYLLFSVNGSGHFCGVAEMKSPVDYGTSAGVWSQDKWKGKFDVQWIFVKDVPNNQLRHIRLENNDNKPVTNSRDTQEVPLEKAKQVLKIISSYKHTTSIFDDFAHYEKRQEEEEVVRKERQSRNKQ
Put plainly: Fluorescence polarization (FP) assay, inhibition of m6A-containing mRNA binding to YTHDF1. The settings on record: read-out: IC50, inhibition of interaction between m6A-containing mRNA and YTHDF1.

The target in a further test is T2, YTHDF1 mutant F480A (Homo sapiens, UniProt Q9BYJ9, F480A).
T2 construct: GST (N, cleaved yes); made in house; host or cells: E. coli BL21 (DE3)
T2 sequence (Q9BYJ9 with tags, fused parts or gaps F480A): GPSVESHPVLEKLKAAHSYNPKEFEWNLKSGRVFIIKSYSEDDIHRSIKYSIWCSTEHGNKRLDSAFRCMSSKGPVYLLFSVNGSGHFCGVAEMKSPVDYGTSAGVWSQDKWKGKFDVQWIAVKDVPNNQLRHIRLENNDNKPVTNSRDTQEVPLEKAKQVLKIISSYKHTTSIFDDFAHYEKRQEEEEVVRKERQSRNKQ
Put plainly: FP assay with YTHDF1 mutant F480A. It counts as binding. As for the experimental part: The protein YTHDF1 (361-559) (SEQ ID NO: 2) and its mutants (SEQ ID NOs: 4-13) were cloned into pGEx-6P-1 vector (obtained from YouBio Co, Ltd, Catalog NO: VT1258), and the His-YTHDF1 (361-559) (SEQ ID NO: 3) used in AlphaScreen Assay was cloned into modified pET28a vector (obtained from YouBio Co, Ltd, Catalog NO: VT1207). The vectors were transformed into E. coli BL21 (DE3) cells and cultured at 37° C. When OD value reached 0.6˜0.8, 1 mM Isopropyl-β-D-thiogalactopyranoside was added to overexpress the protein at 16° C. overnight. […] Then, the proteins were further purified via cation exchange (HiTrap SP, GE Healthcare) and finally through a Superdex 75 10/300 column (GE Healthcare). At last, the purified YTHDF1(361-559) and the mutants were kept in buffer which contains 20 mM Hepes (pH 7.4) and 200 mM NaCl. For His-YTHDF1 (361-559), the protein was purified via Ni-NTA chromatography (HisTrap FF, GE Healthcare), followed by cation exchange and Superdex 75 10/300 column in sequence. And the obtained protein was kept in the buffer with the same ingredients.
All of the YTHDF1 (361-559), the 5′-FAM labeled m^6A-containing mRNA (5′-FAM-[…] (m^6A) CUGUG-3′, SEQ ID NO: 14) and the candidate compounds were diluted with assay buffer (20 mM Hepes (pH 7.4), 50 mM NaCl, 0.01% (v/v) tween 20, 5% (v/v) glycerol). […] At last, the mixtures were measured by Envision Readers (PerkinElmer). […]

In test [1] the test system is tumor infiltrating T cells. Put plainly: Tumor infiltrating T cell function (PMA/ionomycin, intracellular staining). Conditions: B16-OVA bearing mice, PMA and ionomycin stimulation. It counts as in vivo, mouse. Here is the method: (§1) Tumor infiltrating leukocytes were resuspended by RPMI 1640 medium at 5×10^6 per mL in 96-well plates. Phorbol-12-myristate-13-acetate (PMA) (2.5 μg/mL) and ionomycin (0.5 μg/mL) were used to stimulate T cells together with brefeldin A were added to the culture medium for 2 hours at 37° C. Cell concentration of total lymphocytes from draining lymph node was adjusted to 5×10^6 per mL in 96-well plate. 1 μg/mL OT-1 (OVA 257-264) peptide was added to the wells and stimulated for 96 hours. Samples were stained with CD45 and CD8 on ice for 30 min. Intracellular staining was performed to quantify IFN-γ and granzyme B production.
To explore the effects of SAA treatment on T cell function, SAA treated B16-OVA bearing mice were sacrificed to investigate tumor infiltrating T cell (TILs) function. Firstly, Phorbol-12-myristate-13-acetate (PMA) and ionomycin were used to nonspecifically stimulate tumor infiltrating T cell, then intracellular staining was performed to quantify cytokine (e.g., IFN-γ, granzyme B) production by FACS.

The target of a further test is T3, His-YTHDF1 (361-559) (Homo sapiens, UniProt Q9BYJ9).
T3 construct: made in house; host or cells: E. coli BL21 (DE3)
T3 sequence (Q9BYJ9 with tags, fused parts or gaps): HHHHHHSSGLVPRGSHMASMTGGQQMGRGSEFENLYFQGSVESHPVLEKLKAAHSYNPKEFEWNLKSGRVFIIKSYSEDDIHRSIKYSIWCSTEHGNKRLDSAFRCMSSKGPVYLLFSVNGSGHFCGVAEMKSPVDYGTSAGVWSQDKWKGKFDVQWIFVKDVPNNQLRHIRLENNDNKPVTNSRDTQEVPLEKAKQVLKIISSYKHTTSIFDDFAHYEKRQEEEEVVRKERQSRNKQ
Put plainly: AlphaScreen-based assay, m6A-containing mRNA binding to YTHDF1. The settings on record: read-out: IC50, blocking binding between m6A and YTHDF1. Here is the method: Then 10 nM biotinylated m^6A-containing mRNA (5′-biotin-[…] (m^6A) CUGUG-3′) (SEQ ID NO: 15) was added to bind with YTHDF1 (361-559), and unbiotinylated m^6A-containing mRNA was used as the positive control. Before Alpha signal detection, streptavidin donor beads and anti-His acceptor beads were added into the white assay plate in subdued light (OptiPlate™-384, PerkinElmer) and incubated at 4° C. for 1 hour to ensure sufficient binding between biotin tag and streptavidin donor beads, as well as that between His tag and anti-His acceptor beads. Then the Alpha signal was detected on Envision Readers (PerkinElmer).

In test [2] the test system is draining lymph node T cells. Put plainly: Draining lymph node T cell IFN-γ after OT1 peptide stimulation. It counts as in vivo, mouse. The settings on record: 1 μg/mL OT1 peptide. As for the experimental part: as §1
Then, lymphocytes from draining lymph node were isolated and stimulated with 1 μg/mL OT1 peptide, and IFN-γ producing cell were analyzed by FACS.

Each structure is given as a SMILES string.

Regarding `O=C(/C=C/c1ccc(O)c(O)c1/C=C/c1ccc(O)c(O)c1)O[C@H](Cc1ccc(O)c(O)c1)C(=O)O` [SAA, Salvianolic Acid A], the IC50 on YTHDF1 (361-559) stood at 2300 ± 110 nM; at His-YTHDF1 (361-559), 860 ± 60 nM. Moreover, the “inhibitory activity against mutant binding to m6A versus wildtype” value at YTHDF1 mutant F480A was “significantly weaker than that against wildtype YTHDF1”. In addition, in test [1], the “cytokine (IFN-γ, granzyme B) production by tumor infiltrating T cells” value was “higher level of cytokines than DMSO group”. Besides, the “IFN-γ production by DLN T cells” value in test [2] was “much more IFN-γ than DMSO group”.

(Values after patent publication US20240033244A1, “COMPOSITIONS AND METHODS FOR INHIBITING YTHDF1” (SHANGHAI INSTITUTE OF MATERIA MEDICA, CHINESE ACADEMY OF …, priority 2020, published 2024).)
